Results published in patent US11759462B2, “Spirocyclic compounds as tryptophan hydroxylase inhibitors” (priority 2013, dated 2023).
Like-named read-outs stand apart in the source and are kept apart here.

Columns and labels:
[1] = test system: TPH; settings: background statement; cited from earlier work
[2] = test system: central 5-HT production / CNS functions; settings: cited from earlier work
[3] = test system: jejunal mucosal 5-HT in mice (C57 BL6); test: Intestinal 5-HT depletion assay (Example B, single 150 mg/kg oral dose); assay type: in vivo, mouse; settings: one day after oral administration of a single 150 mg/kg dose, P-value class (ANOVA)
How it was run: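 C57 BL6 mice received one 150 mg/kg oral gavage dose; jejunal mucosa was homogenized in acidic trichloroacetic acid buffer and 5-HT measured by HPLC. Levels normalized to BCA protein, expressed as mean percent reduction versus vehicle ± SEM; ANOVA significance.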

[4] = molecular target: T1, Recombinant human TPH1 (MBP tagged) (Homo sapiens, UniProt P17752); test: TPH1 in vitro inhibition assay (kinetic fluorescence); assay type: biochemical
T1 construct: cloning full length human TPH1 cDNA in to a bacterial pMAL-c5E expression vector; made in house; host or cells: E. coli BL21 (DE3)
T1 sequence (P17752 1-444): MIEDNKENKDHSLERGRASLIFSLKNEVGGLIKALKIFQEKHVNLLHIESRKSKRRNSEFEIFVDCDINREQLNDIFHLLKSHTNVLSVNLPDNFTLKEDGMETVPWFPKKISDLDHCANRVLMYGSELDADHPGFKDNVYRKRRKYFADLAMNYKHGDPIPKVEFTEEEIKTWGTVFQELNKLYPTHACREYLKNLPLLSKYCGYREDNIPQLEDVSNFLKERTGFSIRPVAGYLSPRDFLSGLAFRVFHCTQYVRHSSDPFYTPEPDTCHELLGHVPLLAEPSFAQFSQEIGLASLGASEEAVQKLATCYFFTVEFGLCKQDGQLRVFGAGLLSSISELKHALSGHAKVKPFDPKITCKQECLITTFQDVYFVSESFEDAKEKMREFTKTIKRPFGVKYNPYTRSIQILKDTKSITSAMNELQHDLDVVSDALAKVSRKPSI
How it was run: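 Final mix: 15 nM MBP-TPH1, 30 μM Trp, 36 μM 6-methyltetrahydropterin, 25 μM ferrous ammonium sulfate, 50 mM MES pH 7.1, 1% DMSO, room temperature.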

[5] = test system: jejunal mucosal 5-HT in mice (C57 BL6); test: Reduction of mucosal 5-HT concentrations (Example C, repeated oral dosing); assay type: in vivo, mouse; settings: P-value class
Protocol: The efficacy of the TPH1 inhibitors of the invention was assessed for the ability to decrease intestinal serotonin concentration in mice. Mice (C57 BL6) were administered an oral dose of 10 or 50 mg/kg of the test article in the evening. […] Following an overnight fast, each animal was euthanized by exsanguination under isoflurane anesthesia. Jejunal intestinal mucosa was isolated and homogenized in […] of a buffer containing 0.3M trichloroacetic acid, 0.1M sodium acetate, 10 mM EDTA, 20 mM sodium bisulfate and 50 mM ascorbic acid. Following centrifugation the 5-HT levels in the supernatants were measured by HPLC. The remaining mucosal pellet was solubilized overnight at 37° C. in a 0.1% sodium dodecyl sulfate buffer in 0.1N NaOH followed by determination of protein concentrations using a BCA protein assay (Pierce, Rockford, Ill.). 5-HT levels were normalized to protein and data were expressed as mean percent reduction of mucosal 5-HT levels relative to vehicle control±SEM (percent 5-HT reduction). All animal studies were carried out with protocols approved by the Institutional Animal Care and Use Committee. P-values, indicating statistical significance of the data (ANOVA) are provided in the table: * refers to P<0.05,** refers to P<0.01, *** refers to P<0.005, and **** refers to P<0.0005.

[6] = carcinoid tumor patients; cited from earlier work
[7] = read-out: TPH1 Range (TPH1 inhibition IC50)
[8] = after three oral doses (first 10 or 50 mg/kg, then two doses of 50 mg/kg) (title)

Structure (SMILES)	IC50 [4, 7]	Efficacy (statistical significance of reduction of mucosal 5-HT concentrations relative to vehicle) [3]	Efficacy (statistical significance of reduction of mucosal 5-HT concentrations relative to vehicle) [5, 8]	other results
C#Cc1ccc(C[C@H](N)C(=O)O)cc1 [p-Ethynyl phenylalanine]	–	–	–	TPH inhibition (in words) [1]: more selective and more potent TPH inhibitor than pCPA; effect on central 5-HT production ([2]; in vivo): affects central 5-HT production
Cc1ccn(-c2cc(-c3ccc(OC(C)C)cc3)ccc2[C@@H](Oc2cc(N3CCC4(CC3)CN[C@H](C(=O)O)C4)nc(N)n2)C(F)(F)F)n1 [Example 1l, (S)-8-(2-amino-6-((R)-2,2,2-trifluoro-1-(4′-isopropoxy-3-(3-methyl-1H-pyrazol-1-yl)-[1,1′-biphenyl]-4-yl)ethoxy)pyrimidin-4-yl)-2,8-diazaspiro[4.5]decane-3-carboxylic acid]	< 0.05 µM	**** (and refers to P<0.0005)	*** (*** refers to P<0.005)	–
Cc1ccn(-c2cc(-c3ccc(C)c(C)c3)ccc2[C@@H](Oc2cc(N3CCC4(CC3)CN[C@H](C(=O)O)C4)nc(N)n2)C(F)(F)F)n1 [Example 1m, (S)-8-(2-amino-6-((R)-1-(3′,4′-dimethyl-3-(3-methyl-1H-pyrazol-1-yl)-[1,1′-biphenyl]-4-yl)-2,2,2-trifluoroethoxy)pyrimidin-4-yl)-2,8-diazaspiro[4.5]decane-3-carboxylic acid]	–	*** (*** refers to P<0.005)	–	IC50 ([4]; TPH1 Range (TPH1 inhibition IC50)): < 0.05 µM; Efficacy (statistical significance of reduction of mucosal 5-HT concentrations relative to vehicle) ([5]; (title)): * (* refers to P<0.05)
N[C@@H](Cc1ccc(Cl)cc1)C(=O)O (racemic) [pCPA, p-chlorophenylalanine]	–	–	–	TPH inhibition (in words) [1]: very weak and unselective irreversible inhibitor of TPH; CNS side effects ([2]; patients and animals): linked to the onset of depression and other alterations of CNS functions; efficacy against chemotherapy-induced emesis and diarrhea [6]: proven effective in treating chemotherapy-induced emesis, as well as diarrhea
Nc1nc(O[C@H](c2ccc(-c3ccc4ncccc4c3)cc2)C(F)(F)F)cc(N2CCC3(CC2)CN[C@H](C(=O)O)C3)n1 [Example 55bg, (S)-8-(2-amino-6-((R)-2,2,2-trifluoro-1-(4-(quinolin-6-yl)phenyl)ethoxy)pyrimidin-4-yl)-2,8-diazaspiro[4.5]decane-3-carboxylic acid]	< 0.05 µM	*** (*** refers to P<0.005)	*** (*** refers to P<0.005)	–

Now from value to compound, other results behind:

IC50 [4, 7]	Structure (SMILES)	Efficacy (statistical significance of reduction of mucosal 5-HT concentrations relative to vehicle) [3]	Efficacy (statistical significance of reduction of mucosal 5-HT concentrations relative to vehicle) [5, 8]	other results
< 0.05 µM	CCCCc1ccc([C@@H](Oc2cc(N3CCC4(CC3)CN[C@H](C(=O)O)C4)nc(N)n2)C(F)(F)F)c(-n2ccc(C)n2)c1 [Example 12c, (S)-8-(2-amino-6-((R)-1-(4-butyl-2-(3-methyl-1H-pyrazol-1-yl)phenyl)-2,2,2-trifluoroethoxy)pyrimidin-4-yl)-2,8-diazaspiro[4.5]decane-3-carboxylic acid]	*** (*** refers to P<0.005)	*** (*** refers to P<0.005)	–
< 0.05 µM	COc1cc(-c2ccc([C@@H](Oc3cc(N4CCC5(CC4)CN[C@H](C(=O)O)C5)nc(N)n3)C(F)(F)F)c(-n3ccc(C)n3)c2)ccn1 [Example 1n, (S)-8-(2-amino-6-((R)-2,2,2-trifluoro-1-(4-(2-methoxypyridin-4-yl)-2-(3-methyl-1H-pyrazol-1-yl)phenyl)ethoxy)pyrimidin-4-yl)-2,8-diazaspiro[4.5]decane-3-carboxylic acid]	** (** refers to P<0.01)	*** (*** refers to P<0.005)	–
